Test results published in US20240100001A1, “DENATONIUM SALT FOR USE IN PREVENTING, PREVENTING PROGRESSION AND TREATING FATTY LIVER DISEASES” (AARDVARK THERAPEUTICS INC., priority 2021, published 2024).

Experiments:
[1] = tested on: AMLN-diet induced NASH mice; format: in vivo
Description: This example provides the results obtained from a second in vivo mouse model of fatty liver disease treatment to investigate the therapeutic effect of DA on the treatment of NASH versus positive control semaglutide (a GLP-1 agonist marketed drug for lowering HbA1c). The differences in this study, from the preventive model in Example 1, were that a higher dose of DA (75 mg/kg) was used versus 30 mg/kg, dosing was twice daily (BID versus QD in the Example 1 study), a positive control semaglutide was used, a different mouse strain (B6 mice) was used, and the animals were already adults (23 weeks old in Example 2 versus 4 weeks old in Example 1) when the study began because the animals were already fed an AMLN diet for 17 weeks prior to the study being initiated. The study dose began at 75 mg/kg BID.
The study included 3 groups of 10 mice each, (A) vehicle control with distilled water by gavage BID, (B) DA by gavage BID, and (C) semaglutide […] sc QD. Body weights and changes were measured 3× per week. Serum metabolic markers (blood glucose, blood insulin, HbA1c, HDL, LDL triglycerides and bile acids) were measured at beginning of dosing (baseline) and end of study. At the end of the study, histopathology of liver samples and serum levels of inflammatory biomarkers (IL-6, TNFα, CK-18 and TGF-β) were evaluated. Histopathology was performed blindly with a scoring scale according to NAFLD Activity Score and Fibrosis Score according to Table 4.

[2] = 23.1 mg/kg BID DA; cited from earlier work
[3] = tested on: AMLN diet-induced NASH mice; assay: Example 1: one-year DA dosing of AMLN diet-induced NASH mice (prevention study); format: in vivo
Description: This example provides the results of a 52 week study of lower dose DA (30 mg/kg per day QD by gavage) in mice where NASH conditions were induced by diet. The data for an animal-induced NASH of such a long duration (48-52 weeks) can be interpreted to support methods for preventing fatty liver diseases, including NASH, and methods of slowing progression of fatty liver diseases, including NASH. Male C57BL/6 mice (4 weeks old at study start) were maintained on a high-fat “Western diet” (AMLN diet) (DIO-NASH) (D09100301, Research Diet, USA) (40% fat (18% trans-fat), 40% carbohydrates (20% fructose) and 2% cholesterol, 40 kcal % fat, 20 kcal % fructose, and 2% cholesterol) following arrival, inducing non-alcoholic steatohepatitis (NASH). Following acclimation, Groups 1 and 2 (n=22 each) were dosed by intragastric oral gavage (PO) with (respectively) vehicle (distilled water) or denatonium acetate (DA) at 30 mg/kg. Doses were administered once daily (QD) for a full year (through Day 366) at dose volumes of 1 mL/kg. Body weights and clinical observations were monitored throughout the study. Blood was collected from fasted animals at baseline (Day −1) and regularly during the study (Weeks 4, 12, 24, and 48), processed to serum or plasma, and evaluated for metabolic parameters [glucose, insulin, hemoglobin A1c (HbA1c), and glucagon-like peptides 1 and 2 (GLP-1 and -2)], selected serum chemistry parameters [Ala aminotransferase (ALT), Asp aminotransferase (AST), albumin (ALB), and total bile acids (BA)], and multiple cytokines (32 total). After 52 weeks of QD dosing, fasted animals were bled and euthanized, and livers were collected and weighed. Terminal serum samples were assessed for low- and high-density cholesterol (LDL and HDL, respectively) and triglycerides (TGA); liver was assessed for total cholesterol (TC), TGA, and free fatty acids (FFA).
Male C57BL/6 mice (n=44) were purchased from Taconic Biosciences, Inc. (Rensselaer, NY), as 4-week-old animals. Following arrival, animals were weighed using an electronic balance (Ohaus SCOUT® PRO, Parsippany, NJ), given a clinical examination to ensure that the mice were in good condition, and group-housed (up to 4 per cage). The animals were maintained in HEPA-filtered static cages using SaniChip bedding 7090A (Harlan Teklad, Hayward, CA). Animal room controls were set to maintain temperature and relative humidity at 22° C.±4° C. and 50% 20%, respectively. Housing rooms were on a 12:12 light/dark cycle. Animals were acclimated on site for at least 3 days prior to entry onto the study. Following arrival and throughout the study, mice were provided with ad libitum access to water (via water bottles) and (except as noted for fasting) to a high-fat “Western diet” (AMLN diet, No. D09100301; Research Diets, New Brunswick, NJ) containing 40 kcal % fat, 20 kcal % fructose, and 2% cholesterol.
DA was formulated at 30 mg/mL in DW. Solid DA was weighed and added to the appropriate volume of DW; the solution was mixed well and inspected visually to ensure that there was no precipitate and to verify that the test article was completely solubilized. The DA dosing solution was prepared freshly each week and stored refrigerated at 4° C. between use in daily dose administrations. On Day −1 (i.e., one day before the start of dosing); and on Weeks 4, 12, 24, and 48 (i.e., after one, 3, 6, and 12 months of dosing), blood and fecal samples were collected from fasted animals. • Fecal samples (4 pellets per cage of 3-4 mice) were collected directly collected from the floor of each cage, divided into two aliquots, and stored at −80° C. for future microbiota and microbiome analysis. Results of those analyses are not included in this report. • Blood (100 μL/animal) was collected from each animal via the submandibular route. All blood samples were assessed for blood glucose levels and then processed to both serum and plasma. […]

[4] = DA 75 then 50 mg/kg BID, 12 weeks
[5] = 30 mg/kg PO QD, one year (48 weeks in Table 2), blinded histopathologic review
[6] = 30 mg/kg PO QD, only at Week 24
[7] = after one year of QD dosing, 30 mg/kg
[8] = after one year of daily dosing, 30 mg/kg

CC(=O)[O-].CC[N+](CC)(CC(=O)Nc1c(C)cccc1C)Cc1ccccc1 [DA, denatonium acetate]
body weight [1, 4]: remarkable effect
body weight change [1, 4]: remarkable effect
liver weight vs vehicle [1, 4]: significantly decreased
liver/body weight ratio vs vehicle [1, 4]: significantly decreased
NAFLD Activity Score ([1]; blinded histopathologic review, DA 75 then 50 mg/kg BID, 12 weeks): significantly improved
ALT levels vs vehicle control ([1]; end of the study): significantly decreased
AST levels vs vehicle control ([1]; end of the study): significantly decreased
CK-18 levels vs vehicle control ([1]; end of the study): significantly decreased
high density lipoproteins (HDL) ([1]; end of the study): significantly decreased
low density lipoproteins (LDL) ([1]; end of the study): significantly decreased
triglycerides (TG) ([1]; end of the study): significantly decreased
weight gain [2]: significant reduction
levels of the other (n=24) assessed cytokines vs vehicle ([3]; 30 mg/kg PO QD): Significant treatment-related differences were not seen
animals found dead during the study ([3]; 30 mg/kg PO QD, n=22, Weeks 12 and 49, unclear if test article related): two
fibrosis on histopathology [3, 5]: improved/abrogated
steatosis on histopathology [3, 5]: significantly improved
total fibrosis score ([3]; 30 mg/kg PO QD, one year, 1.52 vs. 0.58, p<0.0001): 0.58
relative body weights vs vehicle ([3]; 30 mg/kg PO QD, Day 4): lower
IP-10 blood level vs vehicle ([3]; 30 mg/kg PO QD, Week 4 only): Statistically significant attenuation
MIP-1B blood level vs vehicle ([3]; 30 mg/kg PO QD, Week 4 only): Statistically significant attenuation
IL-13 blood level vs vehicle ([3]; 30 mg/kg PO QD, Week 12 only): Statistically significant attenuation
MIP-1a blood level vs vehicle ([3]; 30 mg/kg PO QD, Week 24 only): Statistically significant attenuation
Serum BA levels vs vehicle ([3]; 30 mg/kg PO QD, Week 24 only): significantly attenuated
fasting blood glucose levels vs vehicle ([3]; 30 mg/kg PO QD, Week 24 only): significantly lower
GLP-2 levels vs vehicle ([3]; 30 mg/kg PO QD, Week 48): did not differ significantly
IL-6 blood level vs vehicle ([3]; 30 mg/kg PO QD, Week 48 only): Statistically significant attenuation
IL-9 blood level vs vehicle ([3]; 30 mg/kg PO QD, Week 48 only): Statistically significant attenuation
KC blood level vs vehicle ([3]; 30 mg/kg PO QD, Week 48 only): Statistically significant attenuation
insulin levels vs vehicle ([3]; 30 mg/kg PO QD, Weeks 4 and 12, not subsequently): significantly elevated
MIG blood level vs vehicle ([3]; 30 mg/kg PO QD, Weeks 4 and 48 only): Statistically significant attenuation
HbA1c levels vs vehicle ([3]; 30 mg/kg PO QD, Weeks 12 and 48, not Week 24): significantly attenuated
Serum ALT activity levels vs vehicle ([3]; 30 mg/kg PO QD, Weeks 24 and 48, not earlier): significantly attenuated
Serum ALB levels vs vehicle ([3]; 30 mg/kg PO QD, any assessed time point): did not differ significantly
body weight increase from baseline ([3]; 30 mg/kg PO QD, during the first 5 months (both groups)): ~150%
body weights (absolute or relative) vs vehicle ([3]; 30 mg/kg PO QD, during the study except Day 4 relative): did not differ in a statistically significant manner
body weights mean increase from baseline ([3]; 30 mg/kg PO QD, during the year-long study (both groups)): approximately 200%
GLP-1 levels vs vehicle [3, 6]: significantly attenuated
Serum AST activity levels vs vehicle [3, 6]: significantly attenuated
Lowered serum levels of ALT ([3]; 30 mg/kg, PO, QD for 48 weeks): ALT (−43%),
Lowered serum levels of AST ([3]; 30 mg/kg, PO, QD for 48 weeks): AST (−9.5%),
Lowered serum levels of HbA1c ([3]; 30 mg/kg, PO, QD for 48 weeks): HbA1c (−6.7%),
Lowered serum levels of bile acid ([3]; 30 mg/kg, PO, QD for 48 weeks): acid (−16.2%)
Lowered serum levels of fasting glucose ([3]; 30 mg/kg, PO, QD for 48 weeks): glucose (−9%),
decreased liver weight of animals ([3]; 30 mg/kg, PO, QD for 48 weeks): (by 10%)
serum levels of GLP-1 (Table 2 summary) ([3]; 30 mg/kg, PO, QD for 48 weeks): Increased
serum levels of GLP-2 (Table 2 summary) ([3]; 30 mg/kg, PO, QD for 48 weeks): Increased
serum levels of inflammatory markers ([3]; 30 mg/kg, PO, QD for 48 weeks): Lowered serum
absolute liver weight at necropsy vs vehicle [3, 7]: not absolute liver weight was attenuated
relative (body weight-normalized) liver weight at necropsy vs vehicle [3, 7]: attenuated
Liver TGA levels vs vehicle [3, 8]: significantly attenuated
Serum TGA levels vs vehicle [3, 8]: significantly attenuated
liver FFA levels vs vehicle [3, 8]: not those of TC or FFA, were significantly attenuated
liver TC levels vs vehicle [3, 8]: not those of TC or FFA, were significantly attenuated
serum HDL levels vs vehicle [3, 8]: not those of HDL or LDL, were significantly attenuated
serum LDL levels vs vehicle [3, 8]: not those of HDL or LDL, were significantly attenuated
adverse effects on survival, body weight, or clinical signs ([3]; mouse, in vivo, po, 30 mg/kg): did not appear to have adverse effects
